Results reported in patent US20210171948A1, “COMPOSITIONS AND METHODS FOR TARGETING GLYPICAN-2 IN THE TREATMENT OF CANCER” (Shepherd Therapeutics, Inc., priority 2019, published 2021).
d = 2'-deoxy (DNA); r = 2'-OH (RNA)

Experiments:
Assay type in all cases: cell-based
CHLA-136 cells = assay: Cyclophosphamide IC50 in siRNA-transfected cells, Cell Titer Glo 2.0 viability (Example 7); settings: for Data Summary: effect of knockdown on sensitivity to cyclophosphamide: CHLA-136; for IC50: CHLA-136 cells transfected with the labelled siRNA, cyclophosphamide added 24 hr post transfection, 72 hour incubation
Method: (§1) GPC2 mRNA expression was reduced with the indicated siRNAs and changes in cell viability were assessed in multiple neuroblastoma cell lines. Cells were transfected with either a control siRNA or with GPC2 siRNA sequences 3, 5 or 7 from Table 7 using the RNAiMAX Lipofectamine kit (Invitrogen, Carlsbad, Calif.) as previously described in 96 wells for viability assays. Cyclophosphamide was added at increasing concentrations (0-20 uM) to transfected cells at 24 hr post transfection. Following a 72 hour incubation period, viability measurements were made using Cell Titer Glo 2.0.

CHLA-172 cells = assay: as above; settings: for Data Summary: effect of knockdown on sensitivity to cyclophosphamide: CHLA-172; for IC50: CHLA-172 cells transfected with the labelled siRNA, cyclophosphamide added 24 hr post transfection, 72 hour incubation
Method: as §1

SKNAS cells = assay: as above; settings: for Data Summary: effect of knockdown on sensitivity to cyclophosphamide: SKNAS; for IC50: SKNAS cells transfected with the labelled siRNA, cyclophosphamide added 24 hr post transfection, 72 hour incubation
Method: as §1

KELLY cells = assay: as above; settings: for Data Summary: effect of knockdown on sensitivity to cyclophosphamide: KELLY; for IC50: KELLY cells transfected with the labelled siRNA, cyclophosphamide added 24 hr post transfection, 72 hour incubation
Method: as §1

[1] = tested on: CHP212, SKNAS, SKNBE2 or CHLA90 neuroblastoma cells; assay: Tumor spheroid formation after siRNA transfection, low attachment plate (Example 11); settings: 96 hours following transfection, in cells with the highest degree of GPC2 mRNA knockdown (FIG. 6)
Method: The effect of GPC2 knockdown on tumor spheroid formation was assessed. CHP212, SKNAS, SKNBE2 or CHLA90 neuroblastoma cells were transfected with either a scrambled control siRNA or with a GPC2 siRNA of sequence 5 from Table 7 using the RNAiMAX Lipofectamine kit (Invitrogen, Carlsbad, Calif.), as previously described. Following transfection, cells were plated in a low attachment 96 well plate for spheroid formation while under siRNA treatment.

Substance | Data Summary: effect of knockdown on sensitivity to cyclophosphamide (CHLA-136 cells) | IC50 (CHLA-136 cells) | Data Summary: effect of knockdown on sensitivity to cyclophosphamide (CHLA-172 cells) | IC50 (CHLA-172 cells) | Data Summary: effect of knockdown on sensitivity to cyclophosphamide (SKNAS cells) | IC50 (SKNAS cells) | Data Summary: effect of knockdown on sensitivity to cyclophosphamide (KELLY cells) | IC50 (KELLY cells) | Tumor spheroid formation [1]
GPC2 siRNA 3: siRNA duplex: sense CCUGCUUGGACCUCGAUAA[dT][dT] (SEQ ID NO: 207), anti-sense UUAUCGAGGUCCAAGCAGG[dT][dT] (SEQ ID NO: 208) (sense CCUGCUUGGACCUCGAUAANN; antisense UUAUCGAGGUCCAAGCAGGNN; 3' dTdT overhangs, chemistry not fully specified; listed as Homo sapiens) | not increase sensitivity | 11 µM | increases sensitivity to | 10 µM | increases sensitivity to | 1370 nM | increases sensitivity to | 8 µM | –
GPC2 siRNA 5: siRNA duplex: sense CUCAGUAGCCCAGCACUCU[dT][dT] (SEQ ID NO: 211), anti-sense AGAGUGCUGGGCUACUGAG[dT][dT] (SEQ ID NO: 212) (sense CUCAGUAGCCCAGCACUCUTT; antisense AGAGUGCUGGGCUACUGAGTT; sugars from the 5' end r19 d2, backbone not given here; listed as Homo sapiens) | not increase sensitivity | 5 µM | increases sensitivity to | 10 µM | increases sensitivity to | 480 nM | increases sensitivity to | 1 µM | greatest inhibition in their ability to form spheroids
